The record followed here is ChEMBL document CHEMBL4043309, “Computer-Aided Discovery and Characterization of Novel Ebola Virus Inhibitors” (J Med Chem, 2018).

Usually IC50 stands for the concentration that inhibits the measured activity by half. The EC50 is the concentration at which the effect is half-maximal.

One series in a line: cells. The series is classed as cell-based, Ebolavirus. To be noted: Orthoebolavirus, HeLa, 4.5 h.
Series [1] is described as follows: in vitro. To be noted: human, hela.
Series [2] is described as follows: in vitro. Conditions: human, hela. The source holds these as a separate data set.
A further series concerns Ebolavirus. Put plainly: Antiviral activity against Ebolavirus Mayinga infected in African green monkey Vero E6 cells after 72 hrs by eGFP assay. The series is classed as functional. Conditions: Orthoebolavirus, Vero C1008, 72 h.
Series [3] has as its target Procathepsin L (Homo sapiens) (UniProt P07711). To be noted: at 10 µM.
For series [4], the target named is Cathepsin B (Homo sapiens) (UniProt P07858). Put plainly: Inhibition of recombinant cathepsin B (unknown origin) at 10 uM using Ac-RR-AFC as substrate preincubated for 29 mins followed by substrate addition by fluorescence-based assay.

Active and inactive are the calls of the source. The rule behind the calls is not given here.

Sequence of Procathepsin L (Homo sapiens) (P07711 114-333 limits assumed): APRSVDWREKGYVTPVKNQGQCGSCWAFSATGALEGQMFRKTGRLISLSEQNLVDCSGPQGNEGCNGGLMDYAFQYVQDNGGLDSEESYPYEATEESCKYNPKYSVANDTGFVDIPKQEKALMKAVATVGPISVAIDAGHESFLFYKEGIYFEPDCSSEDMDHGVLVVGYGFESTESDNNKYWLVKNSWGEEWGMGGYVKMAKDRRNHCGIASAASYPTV

In the case of `CCCCc1oc2ccc(NS(C)(=O)=O)cc2c1C(=O)c1ccc(OCCCN(CCCC)CCCC)cc1` [DRONEDARONE], the IC50 in “cells” worked out at 2.2 µM.
Compound `CC(=O)N(C)C1(c2ccccc2)CCN(CCC[C@]2(c3ccc(Cl)c(Cl)c3)CCCN(C(=O)c3ccccc3)C2)CC1` [OSANETANT] returned an IC50 in “cells” of 9.65 µM. The selectivity ratio in “in vitro [1]” and in the series “in vitro [2]” was 52 throughout.
For the compound `Nc1ncnc2c1c(-c1cccc(OCc3ccccc3)c1)cn2[C@H]1C[C@H](CN2CCCC2)C1`, the results for the IC50 in “cells” and with Ebolavirus were 3.05 µM and 1 to 10 µM, respectively. Also, the selectivity ratio in the series “in vitro [1]” and in the series “in vitro [2]” was 13 in each case.
`CC[C@]1(O)C[C@@H]2CN(CCc3c([nH]c4ccccc34)[C@@](C(=O)OC)(c3cc4c(cc3OC)N(C)[C@H]3[C@@](O)(C(=O)OC)[C@H](OC(C)=O)[C@]5(CC)C=CCN6CC[C@]43[C@@H]65)C2)C1` [VINBLASTINE] showed an EC50 in “cells” of 0.048 µM.
On to `CC[C@]1(O)C[C@@H]2CN(CCc3c([nH]c4ccccc34)[C@@](C(=O)OC)(c3cc4c(cc3OC)N(C)[C@H]3[C@@](O)(C(N)=O)[C@H](O)[C@]5(CC)C=CCN6CC[C@]43[C@@H]65)C2)C1` [VINDESINE], for which the midpoint of inhibition in the series “cells”, the IC50, lay at 0.272 µM. The selectivity ratio in “in vitro [1]” and in “in vitro [2]” was 1840 throughout.
For the compound `COc1ccc2cc1Oc1ccc(cc1)C[C@H]1c3c(cc4c(c3Oc3cc5c(cc3OC)CCN(C)[C@@H]5C2)OCO4)CCN1C` [CEPHARANTHINE], 1.53 µM corresponded to half-maximal inhibition in “cells” (IC50).
In “cells”, `CC[C@]1(O)C[C@H]2CN(CCc3c([nH]c4ccccc34)[C@@](C(=O)OC)(c3cc4c(cc3OC)N(C=O)[C@H]3[C@@](O)(C(=O)OC)[C@H](OC(C)=O)[C@]5(CC)C=CCN6CC[C@]43[C@@H]65)C2)C1` [VINCRISTINE] yielded an IC50 of 0.141 µM.
In the case of `CC(C)(C)c1ccc(C(=O)CCCN2CCC(OC(c3ccccc3)c3ccccc3)CC2)cc1`, in series [3], the inhibition result is “Active”.
The compound `CN1[C@@H]2CC[C@H]1C[C@@H](OC1c3ccccc3CCc3ccccc31)C2` [DEPTROPINE] showed an IC50 in “cells” of 6.58 µM. In series [3], the inhibition result is “Active”. In addition, the selectivity ratio in “in vitro [1]” and in the series “in vitro [2]” was 76 each time.
In turn, `CC/C(=C(\c1ccc(O)cc1)c1ccc(OCCNC)cc1)c1ccccc1` [ENDOXIFEN] yielded an IC50 in “cells” of 3.05 µM. For the same compound, the selectivity ratio in “in vitro [1]” and in the series “in vitro [2]” was 164 each time.
In “cells”, `COCC(=O)O[C@]1(CCN(C)CCCc2nc3ccccc3[nH]2)CCc2cc(F)ccc2[C@@H]1C(C)C` [MIBEFRADIL] yielded an IC50 of 4.32 µM.
As for `CCC(=C(c1ccc(O)cc1)c1ccc(OCCN(C)C)cc1)c1ccccc1`, the midpoint of inhibition in the series “cells”, the IC50, lay at 1.96 µM. Besides, the selectivity ratio in “in vitro [1]” and in “in vitro [2]” was 123 each time.
With `Cc1ccc(CN2CCCN(C)C3(CCN(C)CC3)C2)cc1C`, the figures for the IC50 in the series “cells” and in the series with Ebolavirus were 6.83 µM and 1 to 10 µM, respectively. The selectivity ratio in “in vitro [1]” and in the series “in vitro [2]” was 73 in each case.
In the case of `COc1cc2nc(N3CCCN(C)CC3)nc(NC3CCN(Cc4ccccc4)CC3)c2cc1OC`, the results for the IC50 in “cells” and in the series on Ebolavirus were 0.966 µM and 1 to 10 µM, respectively. Besides, the selectivity ratio in the series “in vitro [1]” and in “in vitro [2]” was 45 throughout.
In the series “cells”, `CCC1=C[C@@H]2CN(C1)Cc1c([nH]c3ccccc13)[C@@](C(=O)OC)(c1cc3c(cc1OC)N(C)[C@H]1[C@@](O)(C(=O)OC)[C@H](OC(C)=O)[C@]4(CC)C=CCN5CC[C@]31[C@@H]54)C2` [VINORELBINE] had an IC50 of 0.066 µM.
On to `CNC1CCC(N(Cc2cccc(-c3ccncc3)c2)C(=O)c2sc3c(F)ccc(F)c3c2Cl)CC1` (stereo unspecified), for which half-maximal inhibition in the series “cells” (IC50) required 7.67 µM. The selectivity ratio in the series “in vitro [1]” and in “in vitro [2]” was 65 each time.
In “cells”, `CCN(CC)CCCN(c1ccccc1)C1Cc2ccccc2C1` [APRINDINE] had a half-inhibitory concentration (IC50) of 7.69 µM.
In “cells”, `COc1cc2c(Oc3ccc4[nH]c(C)cc4c3F)ncnc2cc1OCCCN1CCCC1` [CEDIRANIB] showed an IC50 of 7.67 µM. The selectivity ratio in “in vitro [1]” and in “in vitro [2]” was 65 in each case.
As to `COc1ccc2cc1Oc1ccc(cc1)C[C@H]1c3cc(c(OC)cc3CCN1C)Oc1c(OC)c(OC)cc3c1[C@H](C2)N(C)CC3` [FANCHININ], in the series “cells”, the IC50 stood at 2.16 µM. Further, the selectivity ratio in “in vitro [1]” and in the series “in vitro [2]” was 22 each time.
`CN1CCN(CCCN2c3ccccc3Sc3ccc(S(=O)(=O)N(C)C)cc32)CC1` [THIOPROPERAZINE] had an IC50 in the series “cells” of 4.32 µM.
`CN(C)c1ccccc1CN1CCCN(Cc2ccccc2N(C)C)C1c1ccncc1` showed a half-inhibitory concentration (IC50) in the series “cells” of 6.83 µM. Also, the inhibition entry in series [3] and in series [4] was “Active” in each case. Also, the selectivity ratio in the series “in vitro [1]” and in the series “in vitro [2]” was 73 each time.
Turning to `Cc1[nH]c2c(CN3CC(CO)C(CN4CCCC4)C3)cccc2c1C` (stereo unspecified), the figures for the IC50 in the series “cells” and in the series with Ebolavirus were 6.09 µM and 1 to 10 µM, respectively. The selectivity ratio in the series “in vitro [1]” and in “in vitro [2]” was 82 in each case.
With `COc1cc(Nc2c(C#N)cnc3cc(OCCCN4CCN(C)CC4)c(OC)cc23)c(Cl)cc1Cl` [BOSUTINIB], the IC50 in “cells” came to 3.85 µM.
